This note sets out measurements from article PMC11474946, “Role of DNA Double-Strand Break Formation in Gyrase Inhibitor-Mediated Killing of Nonreplicating Persistent Mycobacterium tuberculosis in Caseum” (ACS Infectious Diseases, 2024).

Read-outs that look alike come from different tables or passages of the source.

For the test, the target named is T1, M. tuberculosis gyrase (MTB DNA gyrase) (Mycobacterium tuberculosis, UniProt P9WG45+P9WG47).
T1 construct: gene gyrA
Kind of test: DNA supercoiling inhibition, relaxed pBR322, agarose gel. It counts as biochemical.

T1 sequence (P9WG47 2-838): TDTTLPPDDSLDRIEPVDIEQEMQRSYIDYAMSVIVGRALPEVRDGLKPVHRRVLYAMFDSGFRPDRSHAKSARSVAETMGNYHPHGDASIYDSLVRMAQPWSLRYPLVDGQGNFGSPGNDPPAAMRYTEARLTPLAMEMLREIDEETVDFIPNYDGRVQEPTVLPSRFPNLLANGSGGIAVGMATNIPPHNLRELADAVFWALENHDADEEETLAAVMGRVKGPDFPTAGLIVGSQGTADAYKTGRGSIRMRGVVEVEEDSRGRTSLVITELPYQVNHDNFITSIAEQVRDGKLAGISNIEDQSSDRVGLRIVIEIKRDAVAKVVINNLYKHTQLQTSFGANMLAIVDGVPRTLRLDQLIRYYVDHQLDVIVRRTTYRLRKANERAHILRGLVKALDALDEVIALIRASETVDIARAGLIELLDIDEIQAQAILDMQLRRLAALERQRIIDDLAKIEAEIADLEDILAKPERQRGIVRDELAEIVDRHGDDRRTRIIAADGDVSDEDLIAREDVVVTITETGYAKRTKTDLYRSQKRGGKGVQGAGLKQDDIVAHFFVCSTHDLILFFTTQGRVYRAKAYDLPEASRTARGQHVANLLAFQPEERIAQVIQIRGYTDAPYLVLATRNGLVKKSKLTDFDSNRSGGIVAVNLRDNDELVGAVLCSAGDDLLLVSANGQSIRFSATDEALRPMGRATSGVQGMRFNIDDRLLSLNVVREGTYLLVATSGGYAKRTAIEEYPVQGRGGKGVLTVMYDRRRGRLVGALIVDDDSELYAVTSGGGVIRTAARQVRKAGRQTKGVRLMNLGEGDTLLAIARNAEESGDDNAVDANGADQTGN
T1 sequence (P9WG45 whole entry): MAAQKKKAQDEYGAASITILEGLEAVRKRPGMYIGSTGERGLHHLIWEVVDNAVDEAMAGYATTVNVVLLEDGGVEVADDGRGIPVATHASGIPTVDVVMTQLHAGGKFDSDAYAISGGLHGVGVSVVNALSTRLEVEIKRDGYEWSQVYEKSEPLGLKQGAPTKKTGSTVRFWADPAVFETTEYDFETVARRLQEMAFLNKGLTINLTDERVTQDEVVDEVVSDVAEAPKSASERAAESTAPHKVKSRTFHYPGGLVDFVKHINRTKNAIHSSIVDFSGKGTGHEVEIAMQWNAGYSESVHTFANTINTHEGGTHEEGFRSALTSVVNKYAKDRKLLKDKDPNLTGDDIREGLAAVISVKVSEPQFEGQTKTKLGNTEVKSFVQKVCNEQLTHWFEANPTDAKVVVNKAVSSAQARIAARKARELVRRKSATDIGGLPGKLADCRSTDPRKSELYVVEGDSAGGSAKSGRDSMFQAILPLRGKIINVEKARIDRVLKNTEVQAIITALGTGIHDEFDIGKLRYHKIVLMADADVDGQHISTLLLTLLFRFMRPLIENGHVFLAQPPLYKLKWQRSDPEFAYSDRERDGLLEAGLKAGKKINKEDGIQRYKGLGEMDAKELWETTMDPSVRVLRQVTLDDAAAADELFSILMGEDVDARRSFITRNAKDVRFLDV

What is called EC50 is the concentration needed to bring the measured effect to its halfway point. A high value points to weaker potency. As to `COc1c(N2CCNC(C)C2)c(F)cc2c(=O)c(C(=O)O)cn(C3CC3)c12` (stereo not drawn) [Gatifloxacin], the EC50 was determined as 5 µM. On the same count and under the same terms, the value for `CCNC(=O)Nc1nc2cc(-c3cnc(C(C)(C)O)nc3)c(F)c([C@H]3CCCO3)c2[nH]1` [SPR719] was 0.3 µM. Regarding EC/11716, for the setting “37 °C, 30 min, relaxed pBR322”, the concentration giving a half-maximal response (EC50) was found to be 0.1 µM. `N[C@@H]1CN(c2c(F)cc3c(=O)c(C(=O)O)cn([C@@H]4C[C@@H]4F)c3c2Cl)CC12CC2` [Sitafloxacin] displayed a 50% effective concentration (EC50) of 1 µM. On to `Nc1nc(-n2cc(C(=O)O)c(=O)c3cc(F)c(N4CC(O)C4)c(Cl)c32)c(F)cc1F` [Delafloxacin], for which the EC50 stood at 23 µM. On the same count and under the same terms, the value for `C[C@H]1COc2c(N3CCN(C)CC3)c(F)cc3c(=O)c(C(=O)O)cn1c23` [Levofloxacin] was 10 µM.
